From patent US10793568B2, “Hormone receptor modulators for treating metabolic conditions and disorders” (ARDELYX, INC., priority 2016, dated 2020)
Like-named read-outs stand apart in the source and are kept apart here.

Tests used:
[1] = molecular target: human Farnesoid X receptor ligand-binding domain/Gal4 DNA binding domain chimera (Homo sapiens (Human), UniProt Q96RI1); assay: Cell-based assay of FXR activation (FXR-UAS-bla HEK 293T beta-lactamase reporter); settings: cellular FXR beta-lactamase reporter assay; for EC50: FXR-UAS-bla HEK 293T cells, 16 h, pEC50 = -log EC50; for Emax: HEK-293T, extent of activation relative to GW4064, read-out: % Efficacy
Chain of human Farnesoid X receptor ligand-binding domain/Gal4 DNA binding domain chimera (Q96RI1 262-486, change not shown): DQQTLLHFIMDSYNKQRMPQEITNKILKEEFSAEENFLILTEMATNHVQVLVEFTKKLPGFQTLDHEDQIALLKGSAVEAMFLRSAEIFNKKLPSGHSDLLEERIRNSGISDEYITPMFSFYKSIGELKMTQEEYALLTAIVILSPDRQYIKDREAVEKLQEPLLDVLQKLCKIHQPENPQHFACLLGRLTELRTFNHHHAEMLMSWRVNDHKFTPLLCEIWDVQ
Chain of human Farnesoid X receptor ligand-binding domain/Gal4 DNA binding domain chimera (P04386 1-147 partner): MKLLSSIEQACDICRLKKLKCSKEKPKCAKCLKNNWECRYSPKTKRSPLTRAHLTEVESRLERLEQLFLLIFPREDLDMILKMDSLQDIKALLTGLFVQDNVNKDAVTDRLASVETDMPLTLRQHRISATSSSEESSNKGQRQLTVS
Procedure, shortened: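 HEK 293T cells stably expressing a Gal4-fused human FXR LBD and a UAS-driven beta-lactamase reporter were incubated with serially diluted compounds for 16 h at 37 °C in phenol red-free DMEM with 2% charcoal-stripped FBS. CCF4 FRET read-out: excitation 409 nm, emission 447 nm. pEC50 comes from a 3-parameter logistic fit, and efficacy is given as % of GW4064.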

[2] = molecular target: ligand binding domain of human FXR (Homo sapiens (Human), UniProt Q96RI1); assay: FXR ligand binding assay (LanthaScreen TR-FRET, SRC2-2 peptide recruitment); settings: for Emax: read-out: % Efficacy
Chain of ligand binding domain of human FXR (Q96RI1 262-486): as the sequence (Q96RI1 262-486, change not shown) above

[3] = -log EC50, concentration required to produce 50% activation
[4] = extent of activation relative to GW4064

EC50 [2, 3]	SMILES	EC50 [1]	pEC50 [2, 3]	Emax [1]	Emax [2]	Emax [2, 4]
–	Cn1nc(C(=O)O)cc1N1C[C@@H]2C[C@H]1C[C@H]2OCc1c(-c2c(Cl)cccc2Cl)noc1C1CC1 [Compound I-180, 5-[(1S,4S,5R)-5-[[5-cyclopropyl-3-(2,6-dichlorophenyl)-1,2-oxazol-4-yl]methoxy]-2-azabicyclo[2.2.1]heptan-2-yl]-1-methyl-1H-pyrazole-3-carboxylic acid]	< 316000 pM	>6.5	–	–	–
–	O=C(NS(=O)(=O)C1CCCCC1)c1ccc(N2C[C@@H]3C[C@H]2C[C@H]3OCc2c(-c3c(Cl)cccc3Cl)noc2C2CC2)cc1 [Compound I-181, N-(cyclohexanesulfonyl)-4-[(1S,4S,5R)-5-{[5-cyclopropyl-3-(2,6-dichlorophenyl)-1,2-oxazol-4-yl]methoxy}-2-azabicyclo[2.2.1]heptan-2-yl]benzamide]	63.1 pM	8.8	110%	166%	–
1260 pM	O=C(NS(=O)(=O)C1CCOCC1)c1ccc(N2C[C@@H]3C[C@H]2C[C@H]3OCc2c(-c3c(Cl)cccc3Cl)noc2C2CC2)cc1 [Compound I-182, 4-[(1S,4S,5R)-5-{[5-cyclopropyl-3-(2,6-dichlorophenyl)-1,2-oxazol-4-yl]methoxy}-2-azabicyclo[2.2.1]heptan-2-yl]-N-(oxane-4-sulfonyl)benzamide]	158 pM	–	106%	–	156%
–	O=C(NS(=O)(=O)C1CCC1)c1ccc(N2C[C@@H]3C[C@H]2C[C@H]3OCc2c(-c3c(Cl)cccc3Cl)noc2C2CC2)cc1 [Compound I-183, N-(cyclobutylsulfonyl)-4-((1S,4S,5R)-5-((5-cyclopropyl-3-(2,6-dichlorophenyl)isoxazol-4-yl)methoxy)-2-azabicyclo[2.2.1]heptan-2-yl)benzamide]	100 pM	8.6	119%	–	163%
–	O=C(NS(=O)(=O)C1COC1)c1ccc(N2C[C@@H]3C[C@H]2C[C@H]3OCc2c(-c3c(Cl)cccc3Cl)noc2C2CC2)cc1 [Compound I-184, 4-((1S,4S,5R)-5-((5-cyclopropyl-3-(2,6-dichlorophenyl)isoxazol-4-yl)methoxy)-2-azabicyclo[2.2.1]heptan-2-yl)-N-(oxetan-3-ylsulfonyl)benzamide]	3160 pM	7.7	108%	–	161%
–	O=C(NS(=O)(=O)C1CCOC1)c1ccc(N2C[C@@H]3C[C@H]2C[C@H]3OCc2c(-c3c(Cl)cccc3Cl)noc2C2CC2)cc1 (stereo partly drawn) [Compound I-185, 4-((1S,4S,5R)-5-((5-cyclopropyl-3-(2,6-dichlorophenyl)isoxazol-4-yl)methoxy)-2-azabicyclo[2.2.1]heptan-2-yl)-N-((tetrahydrofuran-3-yl)sulfonyl)benzamide]	100 pM	8.9	105%	–	155%
–	O=C(NS(=O)(=O)CC1CCOC1)c1ccc(N2C[C@@H]3C[C@H]2C[C@H]3OCc2c(-c3c(Cl)cccc3Cl)noc2C2CC2)cc1 (stereo partly drawn) [Compound I-186, 4-((1S,4S,5R)-5-((5-cyclopropyl-3-(2,6-dichlorophenyl)isoxazol-4-yl)methoxy)-2-azabicyclo[2.2.1]heptan-2-yl)-N-(((tetrahydrofuran-3-yl)methyl)sulfonyl)benzamide]	158 pM	8.9	107%	–	134%
–	CN1CCC(S(=O)(=O)NC(=O)c2ccc(N3C[C@@H]4C[C@H]3C[C@H]4OCc3c(-c4c(Cl)cccc4Cl)noc3C3CC3)cc2)CC1 [Compound I-187, 4-((1S,4S,5R)-5-((5-cyclopropyl-3-(2,6-dichlorophenyl)isoxazol-4-yl)methoxy)-2-azabicyclo[2.2.1]heptan-2-yl)-N-((1-methylpiperidin-4-yl)sulfonyl)benzamide]	10000 pM	9.2	104%	–	156%
–	O=C(NS(=O)(=O)c1cn[nH]c1)c1ccc(N2C[C@@H]3C[C@H]2C[C@H]3OCc2c(-c3c(Cl)cccc3Cl)noc2C2CC2)cc1 [Compound I-188, N-((1H-pyrazol-4-yl)sulfonyl)-4-((1S,4S,5R)-5-((5-cyclopropyl-3-(2,6-dichlorophenyl)isoxazol-4-yl)methoxy)-2-azabicyclo[2.2.1]heptan-2-yl)benzamide]	6310 pM	–	100%	–	150%
–	CC(C)CCS(=O)(=O)NC(=O)c1ccc(N2C[C@@H]3C[C@H]2C[C@H]3OCc2c(-c3c(Cl)cccc3Cl)noc2C2CC2)c(F)c1 [Compound I-190, 4-((1S,4S,5R)-5-((5-cyclopropyl-3-(2,6-dichlorophenyl)isoxazol-4-yl)methoxy)-2-azabicyclo[2.2.1]heptan-2-yl)-3-fluoro-N-(isopentylsulfonyl)benzamide]	63.1 pM	8.4	113%	–	163%
–	CCCCCS(=O)(=O)NC(=O)c1ccc(N2C[C@@H]3C[C@H]2C[C@H]3OCc2c(-c3c(Cl)cccc3Cl)noc2C2CC2)c(F)c1 [Compound I-191, 4-((1S,4S,5R)-5-((5-cyclopropyl-3-(2,6-dichlorophenyl)isoxazol-4-yl)methoxy)-2-azabicyclo[2.2.1]heptan-2-yl)-3-fluoro-N-(pentylsulfonyl)benzamide]	39.8 pM	8.4	111%	–	163%
–	CCCCCCCCS(=O)(=O)NC(=O)c1ccc(N2C[C@@H]3C[C@H]2C[C@H]3OCc2c(-c3c(Cl)cccc3Cl)noc2C2CC2)c(F)c1 [Compound I-192, 4-((1S,4S,5R)-5-((5-cyclopropyl-3-(2,6-dichlorophenyl)isoxazol-4-yl)methoxy)-2-azabicyclo[2.2.1]heptan-2-yl)-3-fluoro-N-(octylsulfonyl)benzamide]	200 pM	7.9	106%	–	152%
–	CCOCCOCCS(=O)(=O)NC(=O)c1ccc(N2C[C@@H]3C[C@H]2C[C@H]3OCc2c(-c3c(Cl)cccc3Cl)noc2C2CC2)c(F)c1 [Compound I-193, 4-((1S,4S,5R)-5-((5-cyclopropyl-3-(2,6-dichlorophenyl)isoxazol-4-yl)methoxy)-2-azabicyclo[2.2.1]heptan-2-yl)-N-((2-(2-ethoxyethoxy)ethyl)sulfonyl)-3-fluorobenzamide]	1580 pM	8.2	114%	–	138%
–	CCCS(=O)(=O)NC(=O)c1ccc(N2C[C@@H]3C[C@H]2C[C@H]3OCc2c(-c3c(Cl)cccc3Cl)noc2C2CC2)cc1F [Compound I-194, 4-((1S,4S,5R)-5-((5-cyclopropyl-3-(2,6-dichlorophenyl)isoxazol-4-yl)methoxy)-2-azabicyclo[2.2.1]heptan-2-yl)-2-fluoro-N-(propylsulfonyl)benzamide]	200 pM	9	104%	–	141%
–	O=C(NS(=O)(=O)C1CC1)c1ccc(N2C[C@@H]3C[C@H]2C[C@H]3OCc2c(-c3c(Cl)cccc3Cl)noc2C2CC2)cc1F [Compound I-195, 4-((1S,4S,5R)-5-((5-cyclopropyl-3-(2,6-dichlorophenyl)isoxazol-4-yl)methoxy)-2-azabicyclo[2.2.1]heptan-2-yl)-N-(cyclopropylsulfonyl)-2-fluorobenzamide]	316 pM	8.8	109%	–	144%
–	O=C(NS(=O)(=O)C1CC1)c1ccc(N2C[C@@H]3C[C@H]2C[C@H]3OCc2c(-c3c(Cl)cccc3Cl)noc2C2(F)CC2)cc1 [Compound I-196, N-(cyclopropylsulfonyl)-4-((1S,4S,5R)-5-((3-(2,6-dichlorophenyl)-5-(1-fluorocyclopropyl)isoxazol-4-yl)methoxy)-2-azabicyclo[2.2.1]heptan-2-yl)benzamide]	794 pM	8.5	110%	–	154%
–	O=C(NS(=O)(=O)C1CC1)c1ccc(N2C[C@@H]3C[C@H]2C[C@H]3OCc2c(-c3c(Cl)cccc3Cl)noc2C2(F)CC2)c(F)c1 [Compound I-197, N-(cyclopropylsulfonyl)-4-((1S,4S,5R)-5-((3-(2,6-dichlorophenyl)-5-(1-fluorocyclopropyl)isoxazol-4-yl)methoxy)-2-azabicyclo[2.2.1]heptan-2-yl)-3-fluorobenzamide]	501 pM	8.5	111%	–	167%
–	CCCS(=O)(=O)NC(=O)c1ccc(N2C[C@@H]3C[C@H]2C[C@H]3OCc2c(-c3c(Cl)cccc3Cl)noc2C2(F)CC2)c(F)c1 [Compound I-198, 4-((1S,4S,5R)-5-((3-(2,6-dichlorophenyl)-5-(1-fluorocyclopropyl)isoxazol-4-yl)methoxy)-2-azabicyclo[2.2.1]heptan-2-yl)-3-fluoro-N-(propylsulfonyl)benzamide]	501 pM	8.5	112%	–	178%
–	O=C(NS(=O)(=O)C1CC1)c1ccc(N2C[C@@H]3C[C@H]2C[C@H]3OC(=O)c2c(-c3c(Cl)cccc3Cl)noc2C2(F)CC2)c(F)c1 [Compound I-199, (1S,4S,5R)-2-(4-((cyclopropylsulfonyl)carbamoyl)-2-fluorophenyl)-2-azabicyclo[2.2.1]heptan-5-yl 3-(2,6-dichlorophenyl)-5-(1-fluorocyclopropyl)isoxazole-4-carboxylate]	10000 pM	7.4	110%	–	146%
